In patent publication US11591330B2, “HIF-2a small-molecule inhibitor and use thereof” (China Medical University, priority 2018, dated 2023):

Key:
HIF-2α = target: T1, HIF-2α (Homo sapiens, UniProt Q99814); assay: Western blot analysis of HIF-2α expression in MCF-7 MS cells; format: cell-based; conditions: 48 h, FIG. 8
T1 construct: endogenous in cells; host or cells: MCF-7 MS (mammosphere / stem cell-like cells induced from human breast cancer MCF-7)
Experimental: (§1) The human breast cancer stem cell-like MCF7 MS cells were divided into control (Ctrl) group, PTX alone treatment group, ComA alone treatment group, and ComA combined with PTX treatment group, treated for 48 h, and then collected; the cells were washed twice with pre-cooled 1×PBS, and PBS was discarded; 100-200 μl RIPA cell lysis solution (RIPA cell lysis solution:Protease inhibitor cocktail=250:1) was added according to the amount of cells; the mixture was transferred to an EP tube for lysis on ice for 40-60 min, and centrifuged at 4° C. at 12000 rpm/min for 15 minutes; and the supernatant was taken and stored at −80° C. for later use.
(§2) Protein standard curve was prepared (in a 96-well plate), with the configuration system and absorbance shown in the table below, wherein the protein solution was placed at 37° C. and shaken for 30 min, the OD value was measured at 570 nm wavelength, and the protein standard curve was drawn: the abscissa being the standard protein content, and the ordinate being the absorbance value (OD value) under the 570 nm wavelength, thereby drawing a standard curve.
(§3) The samples were treated with 6× protein loading buffer. According to the quantified protein concentration, 30 μl:50 μg protein sample per well was loaded, the well was filled with PBS up to 30 μl when the sample was insufficient, and the samples were denatured in a metal bath at 100° C. for 10 min. […]

HIF-1α = assay: Western blot analysis of HIF-1α expression in MCF-7 MS cells; format: cell-based, human; conditions: 48 h, FIG. 8
Experimental: as §1, §2, §3

[1] = system: human breast cancer MCF-7 cells; assay: MTT/CCK8 cell proliferation analysis; format: cell-based
Experimental: (§4) MCF-7 and OVCAR-3 cells were taken out from liquid nitrogen, thawed in a water bath at 37° C., and centrifuged at 1000 rpm for 5 min, the supernatant was removed, 1 ml of DMEM medium with 10% fetal bovine serum was added to MCF-7 cells, the cell suspension was transferred into a 25 cm2 cells culture flask, and a medium with 10% fetal bovine serum was added for culture.
(§5) Well-growing human breast cancer MCF-7 cells, human breast cancer stem cell-like cell MCF-7 MS cells, human ovarian cancer OVCAR-3 cells, human ovarian cancer stem cell-like cell OVCAR-3 cells were taken, digested, resuspended, and inoculated in a 96-well plate with the number of cells per well being 5×10^3; after 24 hours of culture, different concentrations of ComA, ComA combined with PTX, or ComA combined with DDP were administrated for treating the cells for 48 hours, with 3 replicate wells for each concentration; 5 mg/ml of MTT/cck8 was added for treatment for 2 h, followed by shaking for 10 min in a shaker; the absorbance at 570 nm (for measuring MTT)/450 nm (for measuring CCK8) was measured with a microplate reader, the inhibition rate was calculated according to the formula: inhibition rate %=[1−(dosing well-zero adjustment well)/(control well-zero adjustment well)]*100%; IC50 was calculated with SPSS16.0 software, and the experiment was repeated three times.

[2] = system: human ovarian cancer OVCAR-3 cells; assay: MTT/CCK8 cell proliferation analysis; format: cell-based; conditions: MTT/cck8, FIG. 5
Experimental: as §4, §5

[3] = system: human ovarian cancer stem cell-like OVCAR-3 MS cells; assay: MTT/CCK8 cell proliferation analysis; format: cell-based
Experimental: (§6) When MCF-7 or OVCAR-3 cells grew to 70%-80%, the medium was discarded, PBS was added for washing 3 times, and trypsin was added for digestion for 1 min; the DMEM medium containing 10% fetal calf serum was added to stop the digestion, centrifuged at 1000 rpm for 5 min, the supernatant was discarded, PBS was added to resuspend cells, centrifuged at 1000 rpm for 5 min, the supernatant was discarded, 2 ml DMEM-F12 conditioned medium was added to resuspend cells, and the cells were cultured in suspension at 37° C., 5% CO2 in a constant-humidity environment.
as §5

[4] = system: human breast cancer stem cell-like MCF-7 MS cells; assay: MTT/CCK8 cell proliferation analysis; format: cell-based
Experimental: as §6, §5

T1 sequence (Q99814 whole entry): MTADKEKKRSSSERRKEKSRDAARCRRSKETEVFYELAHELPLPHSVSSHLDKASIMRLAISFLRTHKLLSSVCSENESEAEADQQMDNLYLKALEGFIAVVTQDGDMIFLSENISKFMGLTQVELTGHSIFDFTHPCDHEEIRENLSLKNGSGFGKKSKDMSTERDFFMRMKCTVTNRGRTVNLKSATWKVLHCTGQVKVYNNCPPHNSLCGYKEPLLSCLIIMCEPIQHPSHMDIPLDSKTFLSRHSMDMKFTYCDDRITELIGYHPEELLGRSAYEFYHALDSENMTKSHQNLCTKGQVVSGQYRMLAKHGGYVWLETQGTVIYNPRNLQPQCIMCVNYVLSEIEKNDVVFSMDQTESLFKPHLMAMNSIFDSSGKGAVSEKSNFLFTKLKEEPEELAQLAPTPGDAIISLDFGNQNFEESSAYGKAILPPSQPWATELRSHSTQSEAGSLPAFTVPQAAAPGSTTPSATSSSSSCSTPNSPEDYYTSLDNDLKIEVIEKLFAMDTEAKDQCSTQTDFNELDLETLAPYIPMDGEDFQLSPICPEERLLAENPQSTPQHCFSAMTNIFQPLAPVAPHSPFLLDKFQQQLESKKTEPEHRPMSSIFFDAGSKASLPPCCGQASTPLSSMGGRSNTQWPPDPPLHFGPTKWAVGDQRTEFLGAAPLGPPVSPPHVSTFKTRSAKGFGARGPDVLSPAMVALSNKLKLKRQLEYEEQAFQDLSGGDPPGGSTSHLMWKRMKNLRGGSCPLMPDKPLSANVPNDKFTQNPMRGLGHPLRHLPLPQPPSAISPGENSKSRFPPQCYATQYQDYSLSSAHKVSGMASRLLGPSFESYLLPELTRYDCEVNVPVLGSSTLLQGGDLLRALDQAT

Cc1ccn2c(=O)cc(CN(Cc3ccccc3)Cc3ccco3)nc2c1 [ComA]
expression of HIF-2α (HIF-2α; ComA alone): obviously inhibited the expression of HIF-2α | expression of HIF-2α (HIF-2α; ComA combined with PTX): obviously inhibited the expression of HIF-2α | expression of HIF-1α (HIF-1α): no obvious inhibitory effect | inhibitory activity on proliferation ([1]; MCF-7 cells, MTT/cck8, FIG. 4): obvious inhibitory activity | time dependence of anti-tumor cell and anti-tumor stem cell activity ([1]; stated for tumor cells and tumor stem cells together): obviously time-dependent | inhibitory activity on proliferation [2]: obvious inhibitory activity | enhancement of the inhibitory effect of cisplatin (DDP) ([3]; ComA combined with DDP, 48 hours, FIG. 7): can enhance the inhibitory effect | inhibitory activity on proliferation ([3]; MTT/cck8, FIG. 5): obvious inhibitory activity | enhancement of the inhibitory effect of paclitaxel (PTX) ([4]; ComA combined with PTX, 48 hours, FIG. 6): can enhance the inhibitory effect | inhibitory activity on proliferation ([4]; MTT/cck8, FIG. 4): obvious inhibitory activity
